Legend:
human A1AR [1] = biological target: T1, human A1AR (Homo sapiens, UniProt P30542); test: cAMP accumulation assay; type: cell-based; settings: for agonist efficacy in cAMP accumulation assay: compared to compound 3, highest concentration tested; for effect of αβ-met-ADP on potency: inclusion of 10 μM αβ-met-ADP (NT5E/CD73 inhibitor)
T1 sequence (P30542 1-326): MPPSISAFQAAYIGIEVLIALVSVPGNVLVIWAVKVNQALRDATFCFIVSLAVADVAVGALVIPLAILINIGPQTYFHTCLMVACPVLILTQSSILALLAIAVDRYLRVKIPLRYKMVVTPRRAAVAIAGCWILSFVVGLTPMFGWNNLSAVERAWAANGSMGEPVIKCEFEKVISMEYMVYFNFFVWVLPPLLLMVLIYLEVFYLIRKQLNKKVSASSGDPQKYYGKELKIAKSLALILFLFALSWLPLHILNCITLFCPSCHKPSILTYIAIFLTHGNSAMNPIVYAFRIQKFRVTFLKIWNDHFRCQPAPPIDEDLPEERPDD

human A1AR [2] = biological target: T1, human A1AR; test: Ca2+ mobilization assay with chimeric G proteins; type: cell-based; settings: Emax normalized to Emax of adenosine
human A2AAR = human A2AAR (Homo sapiens, UniProt P29274); test: radioligand binding assay
Sequence of human A2AAR (P29274 whole entry): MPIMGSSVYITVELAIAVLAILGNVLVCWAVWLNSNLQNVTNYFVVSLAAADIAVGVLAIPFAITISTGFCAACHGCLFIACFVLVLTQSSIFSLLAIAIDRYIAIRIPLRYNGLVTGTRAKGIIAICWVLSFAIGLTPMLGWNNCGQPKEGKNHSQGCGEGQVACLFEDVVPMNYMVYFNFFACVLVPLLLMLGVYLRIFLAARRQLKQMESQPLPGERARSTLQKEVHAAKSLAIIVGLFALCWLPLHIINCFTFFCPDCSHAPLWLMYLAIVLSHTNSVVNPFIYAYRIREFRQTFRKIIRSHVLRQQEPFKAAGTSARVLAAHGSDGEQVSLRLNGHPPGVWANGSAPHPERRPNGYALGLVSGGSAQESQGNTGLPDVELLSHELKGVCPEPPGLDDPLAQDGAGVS

human A3AR = biological target: T2, human A3AR (Homo sapiens, UniProt P0DMS8); test: radioligand binding assay
T2 sequence (P0DMS8 1-318): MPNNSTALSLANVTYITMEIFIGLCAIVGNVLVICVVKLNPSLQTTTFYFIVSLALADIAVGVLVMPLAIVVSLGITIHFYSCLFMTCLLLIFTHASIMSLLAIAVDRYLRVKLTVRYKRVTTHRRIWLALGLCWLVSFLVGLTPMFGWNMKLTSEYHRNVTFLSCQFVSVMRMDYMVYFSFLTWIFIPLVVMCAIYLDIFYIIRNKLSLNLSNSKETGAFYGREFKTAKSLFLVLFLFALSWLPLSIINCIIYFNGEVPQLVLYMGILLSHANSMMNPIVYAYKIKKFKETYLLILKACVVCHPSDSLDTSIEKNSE

human A2BAR = biological target: T3, human A2BAR (Homo sapiens, UniProt P29275); test: radioligand binding assay; settings: read-out: % inhibition at A2B, 50 μM
T3 sequence (P29275 1-332): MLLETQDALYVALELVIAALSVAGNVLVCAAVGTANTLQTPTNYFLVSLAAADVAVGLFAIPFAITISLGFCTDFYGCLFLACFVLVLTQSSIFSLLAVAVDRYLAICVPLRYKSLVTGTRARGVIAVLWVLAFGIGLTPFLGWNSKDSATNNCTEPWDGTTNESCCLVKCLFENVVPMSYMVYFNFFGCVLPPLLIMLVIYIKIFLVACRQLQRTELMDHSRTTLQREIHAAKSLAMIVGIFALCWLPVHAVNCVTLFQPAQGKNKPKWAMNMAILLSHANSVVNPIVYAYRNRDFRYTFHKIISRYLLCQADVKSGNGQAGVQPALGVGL

C57BL/6 mice [3] = test: noxious thermal sensitivity, Hargreaves paw withdrawal latency; type: in vivo, mouse
C57BL/6 mice [4] = test: telemetry of heart rate and body temperature; type: in vivo, mouse; settings: 5000 nmol/kg, oral
[5] = oral, 50, 500 or 5000 nmol/kg, wild-type mice

For `Nc1ncnc2c1ncn2[C@@H]1O[C@H](CO)[C@@H](O)[C@H]1OP(=O)(O)O` [2′-AMP, adenosine 2′-monophosphate], the “agonist efficacy in cAMP accumulation assay” value (human A1AR [1]) was “full agonists” and the “effect of αβ-met-ADP on potency” value (human A1AR [1]) was “did not significantly alter the potencies”.

For `Nc1ncnc2c1ncn2[C@@H]1O[C@H](CO)[C@@H](OP(=O)(O)O)[C@H]1O` [3′-AMP, adenosine 3′-monophosphate], the “agonist efficacy in cAMP accumulation assay” value (human A1AR [1]) was “full agonists” and the “effect of αβ-met-ADP on potency” value (human A1AR [1]) was “did not significantly alter the potencies”.

In the case of `COP(=O)(OC)OC[C@H]1O[C@@H](n2cnc3c(NC4CCCC4)nc(Cl)nc32)[C@H](O)[C@@H]1O` [Compound 3a, ((2R,3S,4R,5R)-5-(2-Chloro-6-(cyclopentylamino)-9H-purin-9-yl)-3,4-dihydroxytetrahydrofuran-2-yl)methyl Dimethyl Phosphate], the “agonist efficacy in cAMP accumulation assay” value (human A1AR [1]) is reported as “full agonist”, the “agonist efficacy in Ca2+ mobilization assay” value (human A1AR [2]) is reported as “potent full agonists” and the “selectivity for A1AR over A2AAR” value (human A2AAR) is reported as > 100 fold. For the same compound, the “selectivity for A1AR over A3AR” value (human A3AR) was > 10 fold, the inhibition at 50 µM (human A2BAR) was < 10% and the “thermal antinociceptive effect in A1AR knockout mice” value (C57BL/6 mice [3]; A1AR–/– mice, 5 nmol, IT injection) was “completely abolished”. For the same compound, the “effect on noxious thermal sensitivity” value (C57BL/6 mice [3]; intrathecal (IT) or intravenous (IV) injection, mice) was “marked and dose-dependent inhibition of noxious thermal sensitivity”, the “effect on noxious thermal sensitivity” value (C57BL/6 mice [3]; [5]) was “dose-dependently inhibited noxious thermal sensitivity” and the “effect on body temperature” value (C57BL/6 mice [4]; A1AR–/– mice) was “negligible effects”. The “effect on heart rate” value (C57BL/6 mice [4]; A1AR–/– mice) was “negligible effects”, the “effect on body temperature” value (C57BL/6 mice [4]; wild-type mice) was “negligible effects” and the “effect on heart rate” value (C57BL/6 mice [4]; wild-type mice) was “negligible effects”.

In the case of `O=P([O-])([O-])OC[C@H]1O[C@@H](n2cnc3c(NC4CCCC4)nc(Cl)nc32)[C@H](O)[C@@H]1O.[Na+].[Na+]` [Compound 3d, Sodium ((2R,3S,4R,5R)-5-(2-Chloro-6-(cyclopentylamino)-9H-purin-9-yl)-3,4-dihydroxytetrahydrofuran-2-yl)methyl Phosphate], the “agonist efficacy in Ca2+ mobilization assay” value (human A1AR [2]) is reported as “potent full agonists”, the “selectivity for A1AR over A2AAR” value (human A2AAR) is reported as > 100 fold and the “selectivity for A1AR over A3AR” value (human A3AR) is reported as > 10 fold.

With `OC[C@H]1O[C@@H](n2cnc3c(NC4CCCC4)ncnc32)[C@H](O)[C@@H]1O` [Compound 5, N^6-cyclopentyl adenosine, reference compound] the “effect on noxious thermal sensitivity” value (C57BL/6 mice [3]; [5]) was “effects of 3a were similar to 5”, the “effect on body temperature” value (C57BL/6 mice [4]; A1AR–/– mice) was “but not in A1AR^–/– mice” and the “effect on heart rate” value (C57BL/6 mice [4]; A1AR–/– mice) was “modest increase in heart rate”. The “effect on body temperature” value (C57BL/6 mice [4]; wild-type mice) was “statistically significant decrease” and the “effect on heart rate” value (C57BL/6 mice [4]; wild-type mice) was “statistically significant decrease”.

— PMC3501123 (Journal of medicinal chemistry, 2012)
